Laboratory results taken from US20070128685A1, “Methods and compositions for cell culture” (priority 2005, published 2007).

How the values were obtained:
[1] = system: Human dermal adult and newborn skin fibroblasts; assay: Proliferation of human dermal fibroblasts in media supplemented with collagenase; format: cell-based; settings: primary and secondary culture
Procedure: Human dermal adult and newborn skin fibroblasts were cultured in a SFM and serum-containing media (DMEM 5% FBS). Collagenase ([…]) was added to the DMEM serum free media (SFM) and tested on primary and secondary culture of human adult and newborn fibroblasts. In both cases (SFM and DMEM 5%) Collagenase increase cell proliferation up to 2-2.5 fold over the controls.

[2] = system: Normal human adult chondrocytes and normal rodent chondrocytes; assay: Culture of chondrocytes in supplemented DMEM serum free media; format: cell-based; settings: DMEM SFM, Collagenase 5 μg/ml; after 4, 6, and 9 passages
Procedure: Currently, there is not any SFM commercially available for chondrocytes. Using the serum-containing media available, the life-span of the chondrocytes in culture is very limited (up to 3 to 4 passages, between 10-15 doublings times). Thus, the present example illustrates the use of collagenase and forskolin to allow the used of SFM with chondrocytes.
Normal human adult chondrocytes and normal rodent chondrocytes were cultured in a SFM. Collagenase (5 μg/ml) was added into the DMEM serum free media (SFM) and tested on said primary and secondary chondrocytes cultures.

Collagenase
increase of cell proliferation over the controls ([1]; DMEM serum free media (SFM), Collagenase 1 μg/nl): 2-2.5 fold
increase of cell proliferation over the controls ([1]; serum-containing media (DMEM 5% FBS)): 2-2.5 fold
growth of chondrocytes [2]: robust growth
